Measurements: US20070088024A1, “Active substance combination comprising a carbinol combined to at least an NSAID” (LABORATORIOS DEL DR. ESTEVE S.A., priority 2004, published 2007)

Legend:
male Swiss albino mice [1] = experiment: Writhing test in mice (phenylbenzoquinone-induced writhing reactions); format: in vivo; settings: for % Activity (inhibition of the writhing reactions): 60 minutes prior to phenylbenzoquinone; for ED50: p.o., in mg/kg
Procedure: (§1) The Writhing test for the determination of the analgesic activity of the inventive active substance combination is carried out according to the method described in the publication of E. Siegmund et al., Proc. Soc. Exp. Biol. Med. 1957, 95, 729-731 using male Swiss albino mice (20-25 g body weight, obtained from Harlan, S. Feliu de Codinas, Spain). The respective part of the description is hereby incorporated by reference and forms part of the respective disclosure.
The Writhing reactions are induced by intraperitoneal injection of phenylbenzoquinone (25 ml/kg in a 0.02% (volume/volume) ethanolic solution in a 5% (volume/volume) solution in destillated water with Evan's blue in an amount of 0.1% weight/volume) and the writhing reactions are counted during a 15 minute period following the injection. The substances to be tested are orally administered 60 minutes prior to the injection of the phenylbenzoquinone solution. The percentage of the inhibition of the writhing reactions is calculated on the basis of the control group as basis for 0% inhibition.

male Swiss albino mice [2] = experiment: Formaline test in mice; format: in vivo; settings: 40 mg/kg i.p.
Procedure: as §1, with “Formaline” for “Writhing”, “T. Ohkubo” for “E. Siegmund”, “J. Pharmacol.” for “Proc. Soc.”, “Ther. 1990, 252, 1261-1268” for “Biol. Med. 1957, 95, 729-731”
The substances to be tested are intraperitoneally administered to the mice in 5% by weight solution of arabic gum in destined water as vehicle. 15 minutes later 20 μl of a 5% by weight solution of formaline in saline solution is injected into the back of the right paw of the animals. The total time in seconds of licking and/or biting the injected paw is registered in the acute phase, i.e. 0-5 minutes (phase I), and in the chronic phase, i.e. 15-30 (phase II), minutes after injection of the formaline.
The percentage of inhibition is calculated based on the medium values of the acute and chronic phases of the control group as 0% inhibition of the primary and secondary response.

SMILES | % Activity (inhibition of the writhing reactions) (male Swiss albino mice [1]; 40 mg/kg p.o.) [%] | % Activity (inhibition of the writhing reactions) (male Swiss albino mice [1]; 80 mg/kg p.o.) [%] | % Activity (inhibition of the writhing reactions) (male Swiss albino mice [1]; 160 mg/kg p.o.) [%] | ED50 (male Swiss albino mice [1]) | % Activity Phase I (male Swiss albino mice [2]; acute phase 0-5 minutes) [%] | % Activity Phase II (male Swiss albino mice [2]; chronic phase 15-30 minutes) [%]
CC(C)Cc1ccc([C@H](C)C(=O)O)cc1.CN(C)CCO[C@H](c1ccccc1)c1ccnn1C [R-(+)-Cizolirtine ibuprofenate, R-(+)-5-[α-[2-(Dimethylamino)ethoxy]benzyl]-1-methyl-1H-pyrazole S-(+)-ibuprofenate] | 15.9 | 45 | 80.9 | 84.8 | – | –
CN(C)CCO[C@@H](c1ccccc1)c1ccnn1C [S-(−)-Cizolirtine, S-(−)-5-[α-[2-(Dimethylamino)ethoxy]benzyl]-1-methyl-1H-pyrazole] | 29.0 | 49.7 | 59.7 | 95.26 | – | –
CN(C)CCO[C@H](c1ccccc1)c1ccnn1C.O=C(O)Cc1ccccc1Nc1c(Cl)cccc1Cl [R-(+)-Cizolirtine diclofenacate, R-(+)-5-[α-[2-(Dimethylamino)ethoxy]benzyl]-1-methyl-1H-pyrazole diclofenacate] | 14.7 | 57.3 | 72.1 | 84 | – | –
CN(C)CCO[C@@H](c1ccccc1)c1ccnn1C.COc1ccc2cc([C@H](C)C(=O)O)ccc2c1 [S-(−)-Cizolirtine naproxenate, S-(−)-5-[α-[2-(Dimethylamino)ethoxy]benzyl]-1-methyl-1H-pyrazole naproxenate] | 26.7 | 52.4 | 68.5 | 82.15 | – | –
CN(C)CCO[C@H](c1ccccc1)c1ccnn1C.COc1ccc2cc([C@H](C)C(=O)O)ccc2c1 [R-(+)-Cizolirtine naproxenate, R-(+)-5-[α-[2-(Dimethylamino)ethoxy]benzyl]-1-methyl-1H-pyrazole naproxenate] | 32.0 | 52.0 | 77.3 | 71.29 | 49 | 36
